Reference: patent US12037322B2, “AHR agonists” (Eli Lilly and Company, priority 2021, dated 2024)

Target: T1, hAHR (Homo sapiens, UniProt P35869)
T1 construct: expressed in transfected cells
T1 sequence (P35869 11-848): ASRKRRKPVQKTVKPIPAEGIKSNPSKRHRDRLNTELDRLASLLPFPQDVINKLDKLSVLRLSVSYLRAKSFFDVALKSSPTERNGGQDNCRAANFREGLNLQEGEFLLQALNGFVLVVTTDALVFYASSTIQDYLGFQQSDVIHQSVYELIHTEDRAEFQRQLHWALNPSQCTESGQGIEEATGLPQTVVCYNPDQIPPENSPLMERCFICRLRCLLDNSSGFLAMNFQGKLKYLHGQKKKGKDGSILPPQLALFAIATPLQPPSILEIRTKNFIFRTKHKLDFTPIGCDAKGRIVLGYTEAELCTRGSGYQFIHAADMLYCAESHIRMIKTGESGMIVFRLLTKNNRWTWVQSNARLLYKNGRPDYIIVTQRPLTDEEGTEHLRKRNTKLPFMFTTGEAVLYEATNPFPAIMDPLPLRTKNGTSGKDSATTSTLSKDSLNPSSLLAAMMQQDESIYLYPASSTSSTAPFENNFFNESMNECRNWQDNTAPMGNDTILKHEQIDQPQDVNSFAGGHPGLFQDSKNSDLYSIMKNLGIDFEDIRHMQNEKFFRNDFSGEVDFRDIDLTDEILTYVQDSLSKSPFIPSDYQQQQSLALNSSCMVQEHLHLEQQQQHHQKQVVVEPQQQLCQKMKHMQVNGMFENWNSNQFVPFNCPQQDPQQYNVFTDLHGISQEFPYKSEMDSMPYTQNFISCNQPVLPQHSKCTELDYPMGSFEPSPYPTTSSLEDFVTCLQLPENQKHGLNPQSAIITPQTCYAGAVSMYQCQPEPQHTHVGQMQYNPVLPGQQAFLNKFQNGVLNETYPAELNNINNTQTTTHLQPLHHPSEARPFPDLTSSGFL
Assay: hAHR nuclear translocation assay
Format: cell-based
Settings: Jump-In T-REx HEK293 cells expressing AhR-EGFP; 45 min incubation; ratio of EGFP intensity in nuclear over cytosol; 20-point curve
In short: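 Agonist potency derived by 4-parameter logistic fit of nuclear/cytosolic EGFP intensity ratio, imaged in fixed HEK293 cells expressing doxycycline-inducible AhR-EGFP. Cells saw compound for 45 min at 37° C in DMEM plus 0.1% BSA; 20-point twofold dilutions, 0.2% DMSO final.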

Row | Structure (SMILES) | EC50
1 | Cn1c2c(cc(C(=O)Nc3ccc(F)cn3)c1=O)CC(C)(C)C2 [Example 48, N-(5-Fluoro-2-pyridyl)-1,6,6-trimethyl-2-oxo-5,7-dihydrocyclopenta[b]pyridine-3-carboxamide] | 11.3 nM
2 | CC1CCc2c1cc(C(=O)Nc1nccs1)c(=O)n2C (stereo not shown) [Example 15, 1,5-Dimethyl-2-oxo-N-thiazol-2-yl-6,7-dihydro-5H-cyclopenta[b]pyridine-3-carboxamide] | 1.93 nM
3 | CCC1CCc2c1cc(C(=O)Nc1ncc(F)cn1)c(=O)n2C (single isomer, unassigned) [Example 114, 5-ethyl-N-(5-fluoropyrimidin-2-yl)-1-methyl-2-oxo-6,7-dihydro-5H-cyclopenta[b]pyridine-3-carboxamide] | 2.44 nM
4 | C[C@@H]1CCc2c1cc(C(=O)Nc1ncc(F)cn1)c(=O)n2C [Example 12, (5R)-N-(5-Fluoropyrimidin-2-yl)-1,5-dimethyl-2-oxo-6,7-dihydro-5H-cyclopenta[b]pyridine-3-carboxamide] | 7.9 nM
5 | C[C@H]1CCc2c1cc(C(=O)Nc1ccsn1)c(=O)n2C [Example 19, (5S)-N-Isothiazol-3-yl-1,5-dimethyl-2-oxo-6,7-dihydro-5H-cyclopenta[b]pyridine-3-carboxamide] | 1.04 nM
6 | Cn1c2c(cc(C(=O)Nc3ccccn3)c1=O)CC(C)(C)C2 [Example 45, 1,6,6-Trimethyl-2-oxo-N-(2-pyridyl)-5,7-dihydrocyclopenta[b]pyridine-3-carboxamide] | 16.2 nM
7 | COc1cnc(NC(=O)c2c(O)c3c(n(C)c2=O)CCC3C)nc1 (stereo not shown) [Example 27, 4-Hydroxy-N-(5-methoxypyrimidin-2-yl)-1,5-dimethyl-2-oxo-6,7-dihydro-5H-cyclopenta[b]pyridine-3-carboxamide] | 6.41 nM
8 | Cn1c2c(c(O)c(C(=O)Nc3ccccc3)c1=O)CC(C)(C)CC2 [Example 110, 4-Hydroxy-1,6,6-trimethyl-2-oxo-N-phenyl-7,8-dihydro-5H-quinoline-3-carboxamide] | 2.27 nM
9 | C[C@H]1CCc2c1cc(C(=O)Nc1nnc(C(F)(F)F)o1)c(=O)n2C [Example 11, (5S)-1,5-Dimethyl-2-oxo-N-[5-(trifluoromethyl)-1,3,4-oxadiazol-2-yl]-6,7-dihydro-5H-cyclopenta[b]pyridine-3-carboxamide] | 64.7 nM
10 | C[C@H]1CCc2c1cc(C(=O)Nc1ccccn1)c(=O)n2C [Example 22, (5S)-1,5-Dimethyl-2-oxo-N-(2-pyridyl)-6,7-dihydro-5H-cyclopenta[b]pyridine-3-carboxamide] | 4.1 nM
11 | Cn1c2c(c(O)c(C(=O)Nc3ccc(F)cn3)c1=O)C(C)(C)CC2 [Example 44, N-(5-Fluoro-2-pyridyl)-4-hydroxy-1,5,5-trimethyl-2-oxo-6,7-dihydrocyclopenta[b]pyridine-3-carboxamide] | 2.38 nM
12 | C[C@H]1CCc2c1cc(C(=O)Nc1nnc(C(F)(F)F)s1)c(=O)n2C [Example 10, (5S)-1,5-Dimethyl-2-oxo-N-[5-(trifluoromethyl)-1,3,4-thiadiazol-2-yl]-6,7-dihydro-5H-cyclopenta[b]pyridine-3-carboxamide] | 13.7 nM
13 | Cc1nc2ccc(NC(=O)c3cc4c(n(C)c3=O)CCC(C)(C)C4)cc2o1 [Example 50, 1,6,6-Trimethyl-N-(2-methyl-1,3-benzoxazol-6-yl)-2-oxo-7,8-dihydro-5H-quinoline-3-carboxamide] | 8.27 nM
14 | CC1CCc2c1cc(C(=O)Nc1ncccc1F)c(=O)n2C (stereo not shown) [Example 5, N-(3-Fluoro-2-pyridyl)-1,5-dimethyl-2-oxo-6,7-dihydro-5H-cyclopenta[b]pyridine-3-carboxamide] | 16.9 nM
15 | C[C@@H]1CCc2c1cc(C(=O)Nc1ccsn1)c(=O)n2C [Example 18, (5R)-N-Isothiazol-3-yl-1,5-dimethyl-2-oxo-6,7-dihydro-5H-cyclopenta[b]pyridine-3-carboxamide] | 1.32 nM
16 | Cn1c2c(cc(C(=O)Nc3ccccc3)c1=O)COCC2 [Example 106, 1-Methyl-2-oxo-N-phenyl-7,8-dihydro-5H-pyrano[4,3-b]pyridine-3-carboxamide] | 25.9 nM
17 | COc1cnc(NC(=O)c2c(O)c3c(n(C)c2=O)CCC3C)nc1 (single isomer, unassigned) [Example 101, 4-Hydroxy-N-(5-methoxypyrimidin-2-yl)-1,5-dimethyl-2-oxo-6,7-dihydro-5H-cyclopenta[b]pyridine-3-carboxamide] | 6.01 nM
18 | CC1CCc2c1cc(C(=O)NC1CCCC1)c(=O)n2C (single isomer, unassigned) [Example 60, N-Cyclopentyl-1,5-dimethyl-2-oxo-6,7-dihydro-5H-cyclopenta[b]pyridine-3-carboxamide] | 396 nM
19 | CC1CCc2c1c(O)c(C(=O)Nc1ccns1)c(=O)n2C (single isomer, unassigned) [Example 36, 4-Hydroxy-N-isothiazol-5-yl-1,5-dimethyl-2-oxo-6,7-dihydro-5H-cyclopenta[b]pyridine-3-carboxamide] | 2.78 nM
